# Measured values: patent US7166296B2, “Pharmaceutical formulations and ligands for use therein; mimetics for UEA-1” (Sarlan, Ltd., priority 2001, dated 2007)
# How the values were obtained:
# [1] = system: UEA-1 binding sites on Caco-2 cell membrane preparations; experiment: Single tier competition assay: inhibition of biotinylated UEA-1 binding, compound and biotinylated UEA-1 incubated together; design: species or system human; conditions: for Av % Inhibition / Avg % Inhibtion: Single Tier Assay; for Av % Inhibition: library MSI 22; for Avg % Inhibtion: library MSI 26
# Method: (§1) The epithelial cell binding ability of compounds and mixtures obtained from synthetic combinatorial libraries was determined by competition assays. These assays were set up to measure the inhibition of binding of biotinylated UEA-1 to membrane preparations of the epithelial cell line Caco-2 (colon carcinoma cells-2), by compounds and mixtures of the combinatorial libraries. This cell line is a conventional model for epithelial cells.
# (§2) Two competition inhibition assays were used in this case, namely single tier and two tier assays. These assays differed from each other in that in the single tier assay, the mixtures/compounds and the biotinylated UEA-1 were incubated together with the Caco-2 cell membrane preparations, while in case of the two-tier assay, the mixture/compounds were allowed to incubate alone with the cell membranes in the absence of biotinylated UEA-1, which was added in the next step. Addition of the extra step in the two-tier assay was to ensure that the compounds inhibiting the binding of biotinylated UEA-1 to the Caco-2 cell membranes were doing so by themselves binding to surface receptors on the Caco-2 cells and not to the biotinylated UEA-1. Each assay will be described in detail.
# (§3) • 1. Confluent Caco-2 cell monolayers (grown in 75 cm^2 flasks for up to 1 week at 37° C. and 5% CO2) were washed twice in Dulbecco's PBS (DPBS). • 2. Cell monolayers were treated with 10 mM EDTA-DPBS for 5–10 min at 37° C. and cells were harvested by centrifugation at 1000 rpm for 5 min. • 3. Cells were washed 3 times in DPBS. • 4. […] The cells were homogenised for 30 sec. • 6. The homogenates were centrifuged in hard walled tubes at 40,000 rpm for 45 min at 4° C. • 7. […] The supernatant was removed and stored on ice. The procedure was repeated adding the second supernatant to the first. • 8. The protein concentration was determined using e.g. a Bio-Rad protein assay. • 9. All fractions were stored at −80° C. prior to use. Single Tier Assays: • 1. 96-well microtiter plates were coated with membrane preparations of Caco-2 cells either by allowing them to incubate on the plates for 2½ hours at room temperature or by incubating them overnight at 4° C. 100 μl of 10 μg/ml (in 0.05 M carbonate buffer, pH 9.6) of membrane preparation was added to each well. • 2. The plates were flicked out, patted dry and blocked with bovine serum albumin (BSA)/DPBS (200 μl/well) for 1 to 4 hours at room temperature after which they were washed three times in water. • 3. […] Control wells were also set up in which the Caco-2 cell membrane preparations were incubated with unconjugated UEA-1. […] Following overnight incubation the plates were washed thoroughly (3–6 times). The plates were flicked out, patted dry and biotinylated UEA-1 was detected with commercial Streptavidin conjugated to horseradish peroxidase (HRP) (CalBiochem). […] The plates were left to incubate for an hour at room temperature. • 6. The plates were then washed 3–6 times and the biotin-streptavidin binding was detected by adding an HRP substrate OPD (orthophenyl diamine) to each well. 100 μl/well of this substrate at a final concentration of 1.6 mg/ml was added to each well. Before adding to the wells, this substrate was activated by addition of 50 μl of 3% H2O2 per plate and the reaction was allowed to develop in the dark. • 7. The reaction was stopped by adding 50 μl of 4 N H2SO4 to each well after approximately 5–10 minutes or when sufficient colour had developed. The OD490 (absorbance at 490 nm) of each well was measured using a conventional 96 well plate reading spectrophotometer. Two Tier Assays: • 1. 96 well plates were coated with Caco-2 cell membrane preparations in the same manner as described in the single tier assay. • 2. […] 100 μl at these final concentrations were added to each well. • 4. The plates were then left to incubate overnight, a step that would allow the mixtures and compounds to interact with the Caco-2 cell membranes without the presence of the competitor (biotinylated UEA-1) itself. • 5. […]
# [2] = system: UEA-1 binding sites on Caco-2 cell membrane preparations; experiment: Two tier competition assay: compound incubated alone with membranes, biotinylated UEA-1 added in next step; design: species or system human; conditions: for Av % Inhibition / Avg % Inhibition / Avg % Inhib: Two Tier Assay; for Av % Inhibition: library MSI 22; for Avg % Inhibition: library MSI 26; for Avg % Inhib: library TP1012
# Method: as §1, §2, §3
# [3] = library MSI 27, read-out: Single Tier Assay IC50
# [4] = library MSI 27, read-out: Two Tier Assay IC50
# [5] = Table 8, galloyl constructs, read-out: IC 50 (uM) 1st tier (converted)
# [6] = Table 8, galloyl constructs, read-out: IC 50 (uM) 2nd tier
smiles,measurement,setting,value
CNC[C@@H](Cc1ccc(OC(=O)OCc2ccccc2Br)cc1)N(C)C[C@H](CC1CCCCC1)NC(=O)c1cc(OC)c(OC)c(OC)c1,Av % Inhibition,[1]; 62.5 μg/ml,−0%
same,Av % Inhibition,[1]; 250 μg/ml,−11.7%
same,Av % Inhibition,[2]; 62.5 μg/ml,39.7%
same,Av % Inhibition,[2]; 250 μg/ml,58.9%
CCOc1ccc(C[C@H](CNC)N(C)C[C@H](CC2CCCCC2)NC(=O)c2cc(OC)c(OC)c(OC)c2)cc1,Av % Inhibition,[1]; 62.5 μg/ml,−9%
same,Av % Inhibition,[1]; 250 μg/ml,−55.7%
same,Av % Inhibition,[2]; 62.5 μg/ml,49.8%
same,Av % Inhibition,[2]; 250 μg/ml,43.8%
"NC(=O)c1cc(O)c(O)c(O)c1 [3,4,5-trihydroxybenzamide, reference compound]",Avg % Inhibtion,[1]; 62.5 μg/ml,41.7%
same,Avg % Inhibtion,[1]; 250 μg/ml,21%
same,Avg % Inhibition,[2]; 62.5 μg/ml,10.7%
same,Avg % Inhibition,[2]; 250 μg/ml,41.4%
"NC(=O)c1cc(O)cc(O)c1 [3,5-dihydroxybenzamide, reference compound]",Avg % Inhibtion,[1]; 62.5 μg/ml,−1%
same,Avg % Inhibtion,[1]; 250 μg/ml,2.4%
same,Avg % Inhibition,[2]; 62.5 μg/ml,−7%
same,Avg % Inhibition,[2]; 250 μg/ml,−2%
"O=C(O)c1cc(O)cc(O)c1 [3,5-dihydroxybenzoic Acid, reference compound]",Avg % Inhibtion,[1]; 62.5 μg/ml,0%
same,Avg % Inhibtion,[1]; 250 μg/ml,1.1%
same,Avg % Inhibition,[2]; 62.5 μg/ml,−5%
same,Avg % Inhibition,[2]; 250 μg/ml,−7%
COc1cc(C(=O)NCCCCC(NC(=O)c2cc(OC)c(O)c(OC)c2)C(N)=O)cc(OC)c1O (stereo not drawn) [Cpd 1],IC50,[1]; [3],495 µM
same,IC50,[2]; [4],495 µM
COc1ccc(C(=O)NCCCCC(NC(=O)c2ccc(OC)c(OC)c2)C(N)=O)cc1OC (stereo not drawn) [Cpd 2],Single Tier Assay IC50,[1]; library MSI 27,128.20 µg/mL
same,IC50,[1]; [3],271 µM
same,Two Tier Assay IC50,[2]; library MSI 27,96.44 µg/mL
same,IC50,[2]; [4],204 µM
CCOc1cc(C(=O)NCCCCC(NC(=O)c2cc(OCC)c(OCC)c(OCC)c2)C(N)=O)cc(OCC)c1OCC (stereo not drawn) [Cpd 3],IC50,[1]; [3],405 µM
same,IC50,[2]; [4],405 µM
COc1cc(C(=O)NCCCCC(NC(=O)c2cc(OC)c(OC)c(OC)c2)C(N)=O)cc(OC)c1OC (stereo not drawn) [Cpd 4],IC50,[1]; [3],469 µM
same,IC50,[2]; [4],469 µM
NC(=O)C(CCCCNC(=O)c1cc(O)c(O)c(O)c1)NC(=O)c1cc(O)c(O)c(O)c1 (stereo not drawn) [Cpd 6],IC 50 (ug/ml) 1st tier,"[1]; Table 8, galloyl constructs",11 µg/mL
same,IC50,[1]; [5],24 µM
same,Single Tier Assay IC50,[1]; library MSI 27,18.97 µg/mL
same,IC50,[1]; [3],42.2 µM
same,IC 50 (ug/ml) 2nd tier,"[2]; Table 8, galloyl constructs",8 µg/mL
same,IC50,[2]; [6],17 µM
same,Two Tier Assay IC50,[2]; library MSI 27,12.97 µg/mL
same,IC50,[2]; [4],28.9 µM
NC(=O)C(CCCCNC(=O)c1ccc(O)cc1)NC(=O)c1ccc(O)cc1 (stereo not drawn) [Cpd 7],IC50,[1]; [3],649 µM
same,IC50,[2]; [4],649 µM
COc1cc(C(=O)NCCCCC(NC(C)=O)C(N)=O)cc(OC)c1O (stereo not drawn) [Cpd 9],Single Tier Assay IC50,[1]; library MSI 27,125.00 µg/mL
same,IC50,[1]; [3],340 µM
same,Two Tier Assay IC50,[2]; library MSI 27,101.20 µg/mL
same,IC50,[2]; [4],275 µM
CCOc1cc(C(=O)NCCCCC(NC(C)=O)C(N)=O)cc(OCC)c1OCC (stereo not drawn) [Cpd 11],IC50,[1]; [3],590 µM
same,IC50,[2]; [4],590 µM
COc1cc(C(=O)NCCCCC(NC(C)=O)C(N)=O)cc(OC)c1OC (stereo not drawn) [Cpd 12],IC50,[1]; [3],655 µM
same,IC50,[2]; [4],655 µM
CC(=O)NC(CCCCNC(=O)c1cc(O)c(O)c(O)c1)C(N)=O (stereo not drawn) [Cpd 14],IC 50 (ug/ml) 1st tier,"[1]; Table 8, galloyl constructs",72 µg/mL
same,IC50,[1]; [5],54 µM
same,Single Tier Assay IC50,[1]; library MSI 27,129.70 µg/mL
same,IC50,[1]; [3],382 µM
same,IC 50 (ug/ml) 2nd tier,"[2]; Table 8, galloyl constructs",211 µg/mL
same,IC50,[2]; [6],160 µM
same,Two Tier Assay IC50,[2]; library MSI 27,91.52 µg/mL
same,IC50,[2]; [4],270 µM
CC(=O)NC(CCCCNC(=O)c1ccc(O)cc1)C(N)=O (stereo not drawn) [Cpd 15],Single Tier Assay IC50,[1]; library MSI 27,111.40 µg/mL
same,IC50,[1]; [3],362 µM
same,Two Tier Assay IC50,[2]; library MSI 27,86.81 µg/mL
same,IC50,[2]; [4],282 µM
CC(=O)NC(CCCCNC(=O)c1cc(O)cc(O)c1)C(N)=O (stereo not drawn) [Cpd 16],IC50,[1]; [3],773 µM
same,Two Tier Assay IC50,[2]; library MSI 27,108.30 µg/mL
same,IC50,[2]; [4],335 µM
COc1cc(C(=O)NCCCCC(NC(=O)c2cc(OC)c(O)c(OC)c2)C(=O)NCCCCC(NC(=O)C(CCCCNC(=O)c2cc(OC)c(O)c(OC)c2)NC(=O)c2cc(OC)c(O)c(OC)c2)C(N)=O)cc(OC)c1O (stereo not drawn) [Cpd 17],Single Tier Assay IC50,[1]; library MSI 27,145.80 µg/mL
same,IC50,[1]; [3],130 µM
same,Two Tier Assay IC50,[2]; library MSI 27,95.95 µg/mL
same,IC50,[2]; [4],85.6 µM
COc1ccc(C(=O)NCCCCC(NC(=O)c2ccc(OC)c(OC)c2)C(=O)NCCCCC(NC(=O)C(CCCCNC(=O)c2ccc(OC)c(OC)c2)NC(=O)c2ccc(OC)c(OC)c2)C(N)=O)cc1OC (stereo not drawn) [Cpd 18],Single Tier Assay IC50,[1]; library MSI 27,111.30 µg/mL
same,IC50,[1]; [3],105 µM
same,Two Tier Assay IC50,[2]; library MSI 27,90.21 µg/mL
same,IC50,[2]; [4],85.3 µM
CCOc1cc(C(=O)NCCCCC(NC(=O)c2cc(OCC)c(OCC)c(OCC)c2)C(=O)NCCCCC(NC(=O)C(CCCCNC(=O)c2cc(OCC)c(OCC)c(OCC)c2)NC(=O)c2cc(OCC)c(OCC)c(OCC)c2)C(N)=O)cc(OCC)c1OCC (stereo not drawn) [Cpd 19],IC50,[1]; [3],186 µM
same,IC50,[2]; [4],186 µM
CCCCC(CNC)N(C)CC(CC1CCCCC1)NC(=O)c1cc(O)c(O)c(O)c1 (stereo not drawn) [compound 86],Avg % Inhib,[2]; 50 μg/ml,61.61%
same,Avg % Inhib,[2]; 250 μg/ml,76.23%
CCCC[C@H](CNC)N(C)C[C@H](CC1CCCCC1)NC(=O)c1cc(O)c(O)c(O)c1 [compound 90],Avg % Inhib,[2]; 50 μg/ml,53.66%
same,Avg % Inhib,[2]; 250 μg/ml,69.94%
CCCC[C@@H](CNC)N(C)C[C@@H](CC1CCCCC1)NC(=O)c1cc(O)c(O)c(O)c1 [compound 92],Avg % Inhib,[2]; 50 μg/ml,54.8899%
same,Avg % Inhib,[2]; 250 μg/ml,67.7%
CCCC[C@@H](CNC)N(C)C[C@H](CC1CCCCC1)NC(=O)c1cc(O)c(O)c(O)c1 [compound 96],Avg % Inhib,[2]; 50 μg/ml,42.93%
same,Avg % Inhib,[2]; 250 μg/ml,65.78%
CNC[C@H](CC(C)C)N(C)C[C@H](Cc1ccccc1)NC(=O)c1cc(O)c(O)c(O)c1 [compound 125],Avg % Inhib,[2]; 50 μg/ml,61.02%
same,Avg % Inhib,[2]; 250 μg/ml,77.78%
CNC[C@H](Cc1ccc(F)cc1)N(C)C[C@H](Cc1ccc(F)cc1)NC(=O)Cc1ccc(Cl)c(Cl)c1 [compound 141],Avg % Inhib,[2]; 50 μg/ml,41.43%
same,Avg % Inhib,[2]; 250 μg/ml,72.64%
CNC[C@H](Cc1ccc(F)cc1)N(C)C[C@H](Cc1ccc(F)cc1)NC(=O)Cc1cccc(C(F)(F)F)c1 [compound 144],Avg % Inhib,[2]; 50 μg/ml,42.26%
same,Avg % Inhib,[2]; 250 μg/ml,66.71%
